From patent publication US8647657B2, “Polymeric devices for controlled release of active agents” (Durect Corporation, priority 2003, dated 2014)

Columns and labels:
[1] = system: LH; test: Blood level of LH after time-released leuprolide acetate device; assay type: in vivo, human
Experimental: (§1) For example, a 30 mg time-released dose of leuprolide acetate can be administered to an adult subject. The leuprolide acetate active agent is provided in a biodegradable polymer system to supply a polymeric device for controlled release of the active agent. […] The leuprolide acetate active agent is incorporated within the polymer system such that the polymer system provides for controlled release of the agent from the device. When the device is administered to the subject, for example, when it is implanted, the device releases the active agent in a controlled fashion without a lag period, or with a minimal lag period. In this manner, the leuprolide can be gradually released over a period of several months. After a period of two weeks, the subject's blood level of LH may be undetectable and the subject's blood level of FSH may be approximately 5 mIU/mL.
(§2) In another example, a dose of 1.88 mg time-released dose of leuprolide acetate can be administered to a subject. The leuprolide acetate active agent is provided in a biodegradable polymer system to supply a polymeric device for controlled release of the active agent. […] The leuprolide acetate active agent is incorporated within the polymer system such that the polymer system provides for controlled release of the agent from the device. […]

[2] = system: FSH; test: Blood level of FSH after time-released leuprolide acetate device; assay type: in vivo, human
Experimental: as §1, §2

[3] = 1.88 mg time-released dose in polymeric device, released over approximately one month
[4] = 30 mg time-released dose in polymeric device, adult subject, after two weeks

Question: What does the source list for `CCNC(=O)[C@@H]1CCCN1C(=O)[C@H](CCCNC(=N)N)NC(=O)[C@H](CC(C)C)NC(=O)[C@@H](CC(C)C)NC(=O)[C@H](Cc1ccc(O)cc1)NC(=O)[C@H](CO)NC(=O)[C@H](Cc1c[nH]c2ccccc12)NC(=O)[C@H](Cc1c[nH]cn1)NC(=O)[C@@H]1CCC(=O)N1` [leuprolide acetate]?
Answer: LH blood levels [1, 3]: undetectable levels; blood level of LH [1, 4]: undetectable; FSH blood levels [2, 3]: undetectable levels; blood level of FSH [2, 4]: approximately 5 mIU/mL
